In patent US9162992B2, “Compounds and compositions for treatment of breathing control disorders or diseases” (GALLEON PHARMACEUTICALS, INC., priority 2010, dated 2015):

Legend:
[1] = tested on: hypoxic ventilatory response; assay: Hypoxic ventilatory response (HVR) in the rat, plethysmography; type: in vivo; settings: 0.03 mg/kg/min infusion 50 min; 12% O2 for 20 min; vs vehicle
Description: Rats with a pre-cannulated jugular vein (for administering drugs) were acclimated to plethysmography chambers for a minimum of 60 minutes, or until animals were no longer restless. Each animal was dosed with compound (XXXVI), labeled as cmpd (A), at 0.03 mg/kg/min via infusion into the jugular vein catheter for a period of 50 minutes. After a period of 20 minutes, an isocapnic hypoxic mixture (12% O2 balanced N2) was administered into all chambers using a gas mixer (CWE inc. GSM-3 gas mixer) for 20 minutes. After this time, the gas mixer was turned off, resulting in normal room air pumped into the chambers. Ten minutes later, the infusion pumps were turned off, and all animals were given a 20 minute recovery period, followed by a post-study analysis of rat health and behavior. […] Results are illustrated in FIG. 3.

[2] = tested on: hypercapnic ventilatory response; assay: Hypercapnic ventilatory response (HCVR, 3% CO2), rat plethysmography; type: in vivo; settings: for hypercapnia ventilatory response (HCVR): 3% CO2
Description: A 1.5 mg/mL stock was created to give an infusion dose of 0.10 mg/kg/min. A separate 0.45 mg/mL stock was created to give an infusion dose of 0.03 mg/kg/min. All compound solutions and vehicles were titrated to have a pH between 4-8, using a pH paper and titrating with NaOH or HCl solution.
Male Sprague-Dawley rats (Harlan, Inc.), 250-350 g at time of dosing, had been surgically prepared by Harlan to contain jugular vein cannulas. A 12 chamber plethysmography system with temperature/humidity compensation (Epstein et al., 1980, J. Apply Physiol. 49:1107-1115) from Buxco, Inc. (PLY 3223; Buxco, Inc, Wilmington, N.C., USA) using Biosystem XA software, v2.11.1 and a customized 12 site automated infusion system (Harvard Apparatus, Instech, Inc). Gas mixer (CWE Inc.) was used for this experiment to give concentrations of hypercapnia (3% CO2, 21% O2, balance nitrogen). Three tanks containing 100% O2, CO2, and nitrogen were attached to the gas mixer, with the customized gas mixture fed to each plethysmograph at a rate of 2 L/min.
Rat whole body plethysmography was used to evaluate and quantify minute ventilation and the pattern of breathing. A respiratory waveform was generated from the exchange of air between the animal and the chamber. This exchange induced changes in air volume that were measured with a pressure transducer, constituting the respiratory waveform (Lomask M., 2005, “Respiration measurement in the whole body plethysmography,” Buxco Inc., retrieved from http://www dot buxco dot com/downloads/LomaskWBP dot pdf). Atmospheric temperature and humidity were also measured using temperature and humidity probes that sampled chamber conditions. A compensation factor was then determined and applied to the respiratory waveform using a standardized algorithm (Epstein et al., 1980, J. Apply Physiol. 49:1107-1115) to compensate for respiratory conditioning, which was reported as the parameter COMP.
All animals were acclimated to plethysmography chambers for at least 1 hour, or until animals were no longer restless (up to 2 hours prior to data collection). Minute ventilation (MV) was calculated by the Biosystem XA software from direct measurements of tidal volume (TV) and respiratory frequency (f) using the formula MV=TV×f. Minute ventilation (mL/min) is a common endpoint for evaluating ventilatory performance. The protocol included compound (XXXVI) given as a 20 minute infusion, followed by a 20 minute exposure to 3% hypercapnia in addition to the compound (XXXVI) infusion. After 20 minutes of hypercapnia, the compound (XXXVI) infusion continued for an additional 10 minutes, resulting in a total compound (XXXVI) infusion time of 50 minutes. Each experiment included 6 animals receiving compound (XXXVI) (0.03 or 0.10 mg/kg/min) tested against 6 animals receiving vehicle, all of which were challenged with hypercapnia (3%). Animals were continuously monitored and observed for adverse behavioral effects. Such findings were recorded into laboratory notebooks for each individual animal tested.
Respiratory data was collected on a breath-by-breath basis and averaged into 1 min time bins for data analysis. […] Each parameter was compared to vehicle in order to calculate percent difference, using area under the curve (AUC) and peak response values for each defined acquisition period using a customized visual basic restructure analysis macro (Lopotosky, S. Galleon Buxco Restructure tool, v5.2, 2008). All of the data analysis for the single, stand-alone studies was done using the restructure analysis macro (Lopotosky, S. Galleon Buxco Restructure tool, v5.2, 2008). All merged data analysis with both doses was performed in Graphpad Prism for MV, TV, and f only, for hypercapnia studies. Additionally, percent increase was calculated based on the cohort average immediately prior to the hypercapnic challenge to the group's peak response. For merged hypercapnia studies, t=62 to t=67 was used.

## CCCNc1nc(NCCC)nc(N(C)OC)n1.O=S(=O)(O)O [XXXVI, N-(4,6-Bis-n-propylamino-[1,3,5]triazin-2-yl)-N,O-dimethyl-hydroxylamine hydrogen sulfate]
[1]
  minute ventilation, hypoxic ventilatory response: significantly potentiates the hypoxic ventilatory response
[2]; 0.03 mg/kg/min (same as vehicle group), t=62 to t=67
  facilitation of the HCVR: 60%
[2]; 0.03 mg/kg/min IV infusion
  respiration in naive animals: little or no effect
[2]; 0.03 mg/kg/min
  hypercapnia ventilatory response (HCVR): no effect
[2]; 0.10 mg/kg/min IV infusion
  respiration in naive animals: stimulated respiration in naive animals
[2]; 0.10 mg/kg/min
  hypercapnia ventilatory response (HCVR): augmentation of the hypercapnia ventilatory response (HCVR)
[2]; 0.10 mg/kg/min, t=62 to t=67, on top of elevated MV due to compound alone
  increase in MV during the HCVR challenge: 44%
[2]; rats, doses tested
  adverse clinical observations: no adverse clinical observations
